Measurements taken from US12439922B2, “Plant-based chemicals for Varroa mite control” (priority 2019, dated 2025).
Where “and” joins values, the source holds several entries; their conditions need not be identical. Equal entries are not always repeated. Where two headings read alike, the source gives them in different places.

Key:
[1] = Highest amount that dissolves in acetone; format: physicochemical; settings: in 4 μl acetone
Protocol: Higher doses to honey bees were not tested because 2 mg was the highest amount one can dissolve with 4 μl acetone.

bees = format: in vivo, Apis mellifera
Protocol: (§1) Picrotoxinin was dissolved in acetone (0.0064 gram picrotoxinin in 1.6 ml acetone=4 ug/ul) and then serially diluted to various doses. A selected amount of picrotoxinin was applied to each bee after CO2 anesthetization. Then, the bees were inoculated with Varroa mites (10 mites on 10 bees per dish). This procedure was employed to ensure that the mites were obtaining the chemical from the bees.
(§2) The numbers of dead Varroa mites and dead bees were recorded after 2, 4 and 24 hours.

[2] = tested on: Varroa mites (Varroa destructor); test: LD50 determination for mites (topical application, mortality at 24 h); format: in vivo; settings: for Mean LD50 / LD50 1 / LD50 2 / LD50 3: topical, mortality at 24 h; for Mean LD50: mean±se of three trials; for LD50 1: trial 1; for LD50 2: trial 2; for LD50 3: trial 3; for estimated LD50: max. dose 3200 ng/mite in three trials
Protocol: Varroa mites (Varroa destructor) were collected from colonies at the Michigan State University apiary in East Lansing, MI. Mites were collected using the “sugar shake” method (Macedo and Ellis 2002). Approximately 350 bees were brushed from brood frames into a plastic basin and then poured into 473 ml wide-mouth Mason jars fitted with screen lids (3 mm×3 mm mesh). Approximately 8 g powdered sugar were sifted through the screen and the jar was shaken for 20 seconds and let to sit for 3 minutes. The mites then fell through the screen onto a piece of paper. Mites were collected, and the sugar dusts were washed off using moistened paintbrushes. Mites were kept in Petri-dishes with worker pupae and transported to the campus lab for LD50 determination.
Chemicals were dissolved in acetone serially diluted to obtain appropriate dosages. Each mite was topically applied with 0.2 μl of acetone containing the tested chemicals. A triplicate of 10 mites per dose were then housed in a Petri dish (diameter 3 cm, 34.5° C., RH 75%) with one white-eyed worker pupa as food. Mortality was assessed at 24 h. Mites were considered dead if no movement is observed in response to prodding with a metal probe.
(§3) For both bee and mite mortality data, control mortality was used to correct the mortality of different doses of drugs (Abbott, 1925). A Log-Probit line was fitted for each treatment from which the LD50 values and 95% confidence intervals were calculated using the R statistical package (R Development Core Team 2008).

honey bees (foragers) = test: LD50 determination for bees (topical application to foragers, mortality observed for 2 days); format: in vivo, Apis mellifera
Protocol: Honey bees were obtained from the MSU apiary. Forty to fifty colonies were routinely kept during summer months for experiments. Foragers were used for LD50 determination because they are the most sensitive to toxins.
Foragers were collected when they were returning to the hive by an insect vacuum. Foragers were briefly anesthetized with carbon dioxide and individual forager was dosed with 4 μl of acetone containing various dosages of insecticide (at least 5 doses per drug) and a control with 4 μl of acetone only. Bees then were caged together (a triplicate of 10 bees per dose per colony) and their mortality observed for 2 days (acute toxicity) in an incubator (34.5° C., RH 75%).
as §3

Varroa mites = test: Picrotoxinin applied to bees inoculated with Varroa mites: dead mites; format: in vivo, Varroa destructor; settings: for 24-hour dead mite / 4-hour dead mite / 2-hour dead mite: 10 mites on 10 bees per dish
Protocol: as §1, §2

Molecule: C=C(C)[C@@H]1[C@H]2OC(=O)[C@@H]1[C@]1(O)C[C@H]3O[C@]34C(=O)O[C@H]2[C@]14C [Picrotoxinin, picrotoxinin]
- highest amount one can dissolve [1]: 2 mg
- 24-hour dead bee (bees; 0.005 ug/bee, 10 bees per dish): 1
- 2-hour dead bee (bees; 0.1 ug/bee, 10 bees per dish): 1
- 4-hour dead bee (bees; 0.1 ug/bee, 10 bees per dish): 1
- 4-hour dead bee (bees; 1 ug/bee, 10 bees per dish, # = dead perhaps due to leaked sugar syrup): 1#
- 24 hr dead bee (bees; treatment 1 ug/ul): 0
- LD50 for this particular trial (FIG. 1) ([2]; dose response of FIG. 1): 22.61 ng/mite
- susceptibility of Varroa mites to toxicity compared to honey bees ([2]; mite LD50 versus highest bee dose): at least 100,000 fold
- Mean LD50 [2]: 20.16 ± 2.00 ng/mite
- Mean LD50 ([2]; listed as picrotoxinin): 20.16±2.00 ng/mite
- LD50 1 [2]: 20.82 ng/mite
- LD50 2 [2]: 22.61 ng/mite
- LD50 3 [2]: 17.05 ng/mite
- killing of honeybees at highest dose (honey bees (foragers); 2,000,000 ng (2 mg) per bee in 4 μl acetone): failed to kill any honeybees
- LD50 (honey bees (foragers); topical to foragers, max dose 2000 ug/bee): >2000 (max dose ug/bee
- 24-hour dead mite (Varroa mites; 0.000005 ug/bee): 1
- 4-hour dead mite (Varroa mites; 0.00005 ug/bee): 1
- 2-hour dead mite (Varroa mites; 0.0005 ug/bee): 1
- 4-hour dead mite (Varroa mites; 0.0005 ug/bee): 3
- 24-hour dead mite (Varroa mites; 0.0005 ug/bee): 3 and 2
- 2-hour dead mite (Varroa mites; 0.005 ug/bee): 1
- 4-hour dead mite (Varroa mites; 0.005 ug/bee): 1
- 4-hour dead mite (Varroa mites; 0.05 ug/bee): 2 and 1
- 24-hour dead mite (Varroa mites; 0.05 ug/bee): 5 and 3
- 2-hour dead mite (Varroa mites; 0.1 ug/bee): 2
- 4-hour dead mite (Varroa mites; 0.1 ug/bee): 5 and 4
- 24-hour dead mite (Varroa mites; 0.1 ug/bee): 6 and 9
- 2-hour dead mite (Varroa mites; 1 ug/bee): 2 and 4
- 4-hour dead mite (Varroa mites; 1 ug/bee): 4 and 5
- 24-hour dead mite (Varroa mites; 1 ug/bee): 7 and 10
- 24 hr dead mite (Varroa mites; treatment 1 ug/ul): 9 and 10
- 24 hr dead mite (Varroa mites; treatment 4 ug/ul): 10

Molecule: Ginkolide A
- Mean LD50 [2]: 535.52±450.90 ng/mite
- LD50 1 [2]: 348.63 ng/mite
- LD50 2 [2]: 1049.82 ng/mite
- LD50 3 [2]: 208.10 ng/mite

Molecule: C[C@@H]1C(=O)O[C@H]2[C@H](O)[C@@]34[C@H]5C[C@@H](C(C)(C)C)[C@]36[C@@H](OC(=O)[C@@H]6O)O[C@@]4(C(=O)O5)[C@@]12O [Ginkolide B]
- estimated LD50 [2]: >3200 ng/mite

Molecule: Ginkolide C
- estimated LD50 [2]: >3200 ng/mite

Molecule: CC1(C)C(C=C(Cl)Cl)C1C(=O)OC(C#N)c1ccc(F)c(Oc2ccccc2)c1 (stereo not shown) [Cyfluthrin, reference compound]
- Mean LD50 [2]: 0.63 ± 0.18 ng/mite
- LD50 1 [2]: 0.46 ng/mite
- LD50 2 [2]: 0.82 ng/mite
- LD50 3 [2]: 0.60 ng/mite

Molecule: CC(C)(C)[C@]1(O)CC2OC(=O)CC23C(=O)OC2OC(=O)[C@H](O)C231 (stereo partly shown) [Bilobalide]
- estimated LD50 [2]: >3200 ng/mite
